Laboratory results taken from patent US9999690B2, “Labeled compounds and methods of imaging, diagnosing cartilage disorders and diseases, and monitoring cartilage health using labeled and unlabeled compounds” (Perosphere Inc., priority 2013, dated 2018).

Experiment: physchem
Conditions: water

solubility: > 100 mg/mL
SMILES: N=C(N)NCCCC(N)C(=O)NCCCN1CCN(CCCNC(=O)C(N)CCCNC(=N)N)CC1 (stereo not shown) [formula V, 2-Amino-5-guanidino-pentanoic acid (3-{4-[3-(2-amino-5-guanidino-pentanoylamino)-propyl]-piperazin-1-yl}-propyl)-amide]
